The results in this text go back to ChEMBL document CHEMBL5678818, “Discovery of potent SOS1 inhibitors that block RAS activation via disruption of the RAS-SOS1 interaction” (Proc Natl Acad Sci U S A, 2019).

Structures are written as SMILES.

The target of test [1] is Mitogen-activated protein kinase kinase kinase 11 (Homo sapiens) (UniProt Q16584). As to the kind of experiment: Inhibition of MLK3 (unknown origin) assessed as residual activity at 100 nM by KINOMEscan analysis relative to control.
Sequence of Mitogen-activated protein kinase kinase kinase 11 (Homo sapiens) (Q16584 whole entry, looked up): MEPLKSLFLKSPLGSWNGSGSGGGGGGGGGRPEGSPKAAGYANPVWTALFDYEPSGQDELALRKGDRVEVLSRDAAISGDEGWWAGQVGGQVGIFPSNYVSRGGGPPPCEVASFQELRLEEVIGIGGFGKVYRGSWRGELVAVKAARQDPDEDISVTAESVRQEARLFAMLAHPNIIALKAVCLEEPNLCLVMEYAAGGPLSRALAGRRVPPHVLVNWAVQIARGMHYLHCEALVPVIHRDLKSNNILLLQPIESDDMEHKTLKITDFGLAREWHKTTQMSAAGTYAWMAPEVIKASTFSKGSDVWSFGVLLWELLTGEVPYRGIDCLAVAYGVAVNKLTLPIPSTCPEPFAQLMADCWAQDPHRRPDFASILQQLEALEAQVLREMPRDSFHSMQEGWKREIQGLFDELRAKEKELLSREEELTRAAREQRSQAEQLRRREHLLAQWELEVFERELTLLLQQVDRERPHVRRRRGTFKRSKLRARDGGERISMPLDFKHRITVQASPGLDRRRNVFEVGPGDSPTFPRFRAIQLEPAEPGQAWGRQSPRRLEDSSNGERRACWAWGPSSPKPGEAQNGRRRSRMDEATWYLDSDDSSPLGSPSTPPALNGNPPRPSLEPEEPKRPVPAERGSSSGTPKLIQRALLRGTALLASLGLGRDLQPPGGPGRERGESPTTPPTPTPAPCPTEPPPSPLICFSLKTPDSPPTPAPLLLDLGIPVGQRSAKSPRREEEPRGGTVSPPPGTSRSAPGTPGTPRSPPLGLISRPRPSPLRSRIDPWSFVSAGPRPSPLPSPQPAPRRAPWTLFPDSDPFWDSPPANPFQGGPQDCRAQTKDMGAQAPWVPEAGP
Test [2] addresses Tyrosine-protein kinase Blk (Homo sapiens) (UniProt P51451). As to the kind of experiment: Inhibition of BLK (unknown origin) assessed as residual activity at 100 nM by KINOMEscan analysis relative to control.
The next test is filed under the species Homo sapiens. As to the kind of experiment: Inhibition of N-terminal GST-tagged recombinant human SOS1 L901K mutant (564 to 1049 residues) expressed in Escherichia coli assessed as reduction in KRAS G12C mutant activation at 10 uM by HTRF analysis relative to control. Background: In TR-FRET formats the signal depends on donor and acceptor labels being close together.

The target in test [3] is T1, Dual specificity protein kinase TTK (Homo sapiens) (UniProt P33981).
T1 sequence (whole entry): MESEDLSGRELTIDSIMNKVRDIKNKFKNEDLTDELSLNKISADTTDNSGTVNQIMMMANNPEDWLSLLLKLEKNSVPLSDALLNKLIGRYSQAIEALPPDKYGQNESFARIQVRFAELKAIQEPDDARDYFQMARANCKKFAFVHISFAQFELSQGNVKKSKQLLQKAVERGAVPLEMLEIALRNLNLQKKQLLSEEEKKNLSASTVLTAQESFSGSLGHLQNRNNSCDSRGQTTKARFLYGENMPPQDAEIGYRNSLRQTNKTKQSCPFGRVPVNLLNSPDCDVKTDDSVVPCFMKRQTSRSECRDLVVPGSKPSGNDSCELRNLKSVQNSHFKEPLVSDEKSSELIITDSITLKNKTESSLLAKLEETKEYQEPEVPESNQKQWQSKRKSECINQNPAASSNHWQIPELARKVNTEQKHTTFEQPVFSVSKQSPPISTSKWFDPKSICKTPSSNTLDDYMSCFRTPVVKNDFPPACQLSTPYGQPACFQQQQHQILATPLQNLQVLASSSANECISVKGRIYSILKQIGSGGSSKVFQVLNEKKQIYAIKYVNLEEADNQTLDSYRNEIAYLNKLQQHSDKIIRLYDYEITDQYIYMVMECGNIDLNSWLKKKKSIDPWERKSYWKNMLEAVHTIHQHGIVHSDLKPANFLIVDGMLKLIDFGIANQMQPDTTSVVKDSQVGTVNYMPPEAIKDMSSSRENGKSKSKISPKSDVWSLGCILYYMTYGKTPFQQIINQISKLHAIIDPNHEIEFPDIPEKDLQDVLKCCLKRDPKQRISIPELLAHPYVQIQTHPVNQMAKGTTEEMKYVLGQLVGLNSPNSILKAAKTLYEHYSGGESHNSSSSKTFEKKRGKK
As to the kind of experiment: Inhibition of TTK (unknown origin) assessed as residual activity at 100 nM by KINOMEscan analysis relative to control.

Test [4] deals with T2, Myosin-IIIb (Homo sapiens) (UniProt Q8WXR4).
T2 sequence (whole entry): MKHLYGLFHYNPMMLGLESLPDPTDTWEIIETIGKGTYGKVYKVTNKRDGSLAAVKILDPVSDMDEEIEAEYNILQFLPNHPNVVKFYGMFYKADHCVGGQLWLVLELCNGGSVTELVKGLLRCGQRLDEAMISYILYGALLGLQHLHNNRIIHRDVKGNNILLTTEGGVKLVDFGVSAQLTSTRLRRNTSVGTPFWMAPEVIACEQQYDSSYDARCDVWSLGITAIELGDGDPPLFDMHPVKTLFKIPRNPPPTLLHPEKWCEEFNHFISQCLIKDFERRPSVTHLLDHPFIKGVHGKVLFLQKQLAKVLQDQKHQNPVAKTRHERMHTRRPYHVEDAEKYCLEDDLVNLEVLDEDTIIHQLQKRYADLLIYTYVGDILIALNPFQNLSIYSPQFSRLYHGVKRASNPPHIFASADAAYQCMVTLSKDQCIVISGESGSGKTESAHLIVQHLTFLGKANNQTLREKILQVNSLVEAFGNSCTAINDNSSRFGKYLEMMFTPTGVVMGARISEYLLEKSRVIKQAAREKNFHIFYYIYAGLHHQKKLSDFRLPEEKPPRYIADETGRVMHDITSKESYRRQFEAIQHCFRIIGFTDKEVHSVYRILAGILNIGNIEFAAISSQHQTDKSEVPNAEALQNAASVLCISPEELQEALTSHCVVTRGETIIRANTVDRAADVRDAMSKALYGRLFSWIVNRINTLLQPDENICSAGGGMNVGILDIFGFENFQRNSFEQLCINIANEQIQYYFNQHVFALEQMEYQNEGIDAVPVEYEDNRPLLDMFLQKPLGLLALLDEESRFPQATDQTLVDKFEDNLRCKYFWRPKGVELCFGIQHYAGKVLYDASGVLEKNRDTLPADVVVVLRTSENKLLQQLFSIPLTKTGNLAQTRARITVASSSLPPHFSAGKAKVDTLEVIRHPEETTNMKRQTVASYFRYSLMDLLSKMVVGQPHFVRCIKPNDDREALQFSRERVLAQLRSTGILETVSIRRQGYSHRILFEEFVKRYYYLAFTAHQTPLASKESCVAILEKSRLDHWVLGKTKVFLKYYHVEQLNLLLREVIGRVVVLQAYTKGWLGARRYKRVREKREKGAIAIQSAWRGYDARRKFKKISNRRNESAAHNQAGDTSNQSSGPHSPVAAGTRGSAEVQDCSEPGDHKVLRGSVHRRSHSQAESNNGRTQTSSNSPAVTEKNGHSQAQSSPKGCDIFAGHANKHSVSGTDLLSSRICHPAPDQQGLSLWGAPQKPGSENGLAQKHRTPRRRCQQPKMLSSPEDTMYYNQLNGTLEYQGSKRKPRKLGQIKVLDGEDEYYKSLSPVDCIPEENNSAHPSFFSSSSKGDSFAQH
As to the kind of experiment: Inhibition of MYO3B (unknown origin) assessed as residual activity at 100 nM by KINOMEscan analysis relative to control.

Test [5] concerns the target T3, Dual specificity mitogen-activated protein kinase kinase 5 (Homo sapiens) (UniProt Q13163).
T3 sequence (whole entry): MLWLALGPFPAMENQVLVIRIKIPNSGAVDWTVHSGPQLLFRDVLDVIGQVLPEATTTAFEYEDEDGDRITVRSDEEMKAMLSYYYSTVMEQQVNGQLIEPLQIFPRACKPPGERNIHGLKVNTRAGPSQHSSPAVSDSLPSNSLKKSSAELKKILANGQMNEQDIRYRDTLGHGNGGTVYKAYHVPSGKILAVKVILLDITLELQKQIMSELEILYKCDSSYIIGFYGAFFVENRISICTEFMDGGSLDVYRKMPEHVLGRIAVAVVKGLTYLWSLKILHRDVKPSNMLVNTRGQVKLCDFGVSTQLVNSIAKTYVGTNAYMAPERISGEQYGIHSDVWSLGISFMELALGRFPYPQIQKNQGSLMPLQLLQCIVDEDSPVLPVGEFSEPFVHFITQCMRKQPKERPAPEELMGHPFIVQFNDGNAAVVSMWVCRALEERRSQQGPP
As to the kind of experiment: Inhibition of MEK5 (unknown origin) assessed as residual activity at 100 nM by KINOMEscan analysis relative to control.

The inhibition is how much of the control response was suppressed.

Sequence of Tyrosine-protein kinase Blk (Homo sapiens) (P51451 2-505 limits assumed): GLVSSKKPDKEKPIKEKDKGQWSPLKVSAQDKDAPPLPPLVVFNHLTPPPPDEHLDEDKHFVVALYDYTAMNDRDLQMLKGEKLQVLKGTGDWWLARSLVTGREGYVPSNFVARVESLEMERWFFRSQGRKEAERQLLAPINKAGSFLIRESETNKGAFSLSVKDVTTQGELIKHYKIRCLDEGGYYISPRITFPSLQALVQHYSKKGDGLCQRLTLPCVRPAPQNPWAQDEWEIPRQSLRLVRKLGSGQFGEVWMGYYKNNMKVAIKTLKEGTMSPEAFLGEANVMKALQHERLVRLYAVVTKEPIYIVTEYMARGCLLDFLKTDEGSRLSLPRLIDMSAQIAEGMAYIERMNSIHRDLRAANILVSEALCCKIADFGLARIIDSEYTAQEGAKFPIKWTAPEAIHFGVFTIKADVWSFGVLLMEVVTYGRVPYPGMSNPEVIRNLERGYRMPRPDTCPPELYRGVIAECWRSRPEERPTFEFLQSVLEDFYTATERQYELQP

Turning to `COc1cc2ncnc(N[C@H](C)c3cccc4ccccc34)c2cc1OC`, the Activity turned out to be 100% in test [1]; 77% in test [2]; 95% in test [3]; 98% in test [4]; 83% in test [5]. Also, in the test listed under Homo sapiens, the inhibition came out at 38%.
